Laboratory results from patent publication US6914045B2, “Glycopeptide antibiotics” (Wyeth Holdings Corporation, priority 2001, dated 2005).
Values after ≈ are worked out from the molar mass of the structure shown.

Key:
Test in all cases: in vitro antibacterial evaluation, MIC by broth dilution
Type in all cases: cell-based
Streptococcus sp. = settings: broth dilution, 18 hours at 35° C.
In short: (§1)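 Test organisms, which included recent clinical isolates resistant to methicillin, penicillin and/or vancomycin, were inoculated at 5×10^5 CFU/mL into Muller-Hinton II […] containing antibiotic at 64-0.06 μg/mL. Minimum inhibitory concentrations were then read as the lowest level inhibiting growth.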

Escherichia coli = test system: Escherichia coli
In short: as §1

Staphylococcus sp. = settings: broth dilution, 18 hours at 35° C.; for MIC Staphylococcus aureus (GC 1131): strain GC 1131
In short: as §1

Enterococcus sp. = settings: broth dilution, 18 hours at 35° C.
In short: as §1

CC(c1ccccc1)C1NC(=O)CNC(=O)C(CO)NC(=O)C(C(O)C2CNC(=N)N2C2OC(CO)C(O)C(O)C2O)NC(=O)C(C(O)C2CNC(=N)N2)NC(=O)C(Cc2ccc(OC3OC(CO)C(OC4OC5COC(c6cccc(Cl)c6)OC5C(O)C4O)C(O)C3O)cc2)NC1=O (stereo not drawn) [Example 138, Cyclo[glycyl-β-methylphenylalanyl-O-[4-O-[4,6-O-(3-chlorobenzylidene)hexopyranosyl]-hexopyranosyl]tyrosyl-3-(2-iminoimidazolidin-4-yl)seryl-3-(3-hexopyranosyl-2-iminoimidazolidin-4-yl)serylseryl]]
MIC Streptococcus agalactiae (GC 4564) (Streptococcus sp.; Streptococcus agalactiae (GC 4564)): 0.12 µg/mL (≈ 0.0846 µM) | MIC Streptococcus pneumoniae (ATCC 6301) (Streptococcus sp.; Streptococcus pneumoniae (ATCC 6301)): <0.06 µg/mL | MIC Streptococcus pneumoniae (GC 1894) (Streptococcus sp.; Streptococcus pneumoniae (GC 1894)): <0.06 µg/mL | MIC Streptococcus pneumoniae (GC 4565) (Streptococcus sp.; Streptococcus pneumoniae (GC 4565)): <0.06 µg/mL | MIC Streptococcus pyogenes (GC 4563) (Streptococcus sp.; Streptococcus pyogenes (GC 4563)): 0.25 µg/mL (≈ 0.176 µM) | MIC Streptococcus pneumoniae (ATCC 6301) (Streptococcus sp.; strain ATCC 6301): <0.06 µg/mL | MIC Streptococcus pneumoniae (GC 1894) (Streptococcus sp.; strain GC 1894): <0.06 µg/mL | MIC Streptococcus pyogenes (GC 4563) (Streptococcus sp.; strain GC 4563): 0.25 µg/mL (≈ 0.176 µM) | MIC Streptococcus agalactiae (GC 4564) (Streptococcus sp.; strain GC 4564): 0.12 µg/mL (≈ 0.0846 µM) | MIC Streptococcus pneumoniae (GC 4565) (Streptococcus sp.; strain GC 4565): <0.06 µg/mL | MIC Escherichia coli (ATCC 25922) (Escherichia coli; strain ATCC 25922, 18 hours at 35° C.): 64 µg/mL (≈ 45.1 µM) | MIC Escherichia coli (GC 4559) (Escherichia coli; strain GC 4559, 18 hours at 35° C.): 64 µg/mL (≈ 45.1 µM) | MIC Escherichia coli (GC 4560) (Escherichia coli; strain GC 4560, 18 hours at 35° C.): 0.5 µg/mL (≈ 0.353 µM) | MIC Staphylococcus aureus (GC 1131) (Staphylococcus sp.; inoculum 5×10^5 CFU/mL): 2 µg/mL (≈ 1.41 µM) | MIC Staphylococcus aureus (ATCC 29213) (Staphylococcus sp.; strain ATCC 29213): 2 µg/mL (≈ 1.41 µM) | MIC Staphylococcus aureus (GC 1131) (Staphylococcus sp.): 2 µg/mL (≈ 1.41 µM) | MIC Staphylococcus aureus (GC 3051) (Staphylococcus sp.; strain GC 3051): 2 µg/mL (≈ 1.41 µM) | MIC Staphylococcus aureus (GC 3053) (Staphylococcus sp.; strain GC 3053): 2 µg/mL (≈ 1.41 µM) | MIC Staphylococcus aureus (GC 4541) (Staphylococcus sp.; strain GC 4541): 2 µg/mL (≈ 1.41 µM) | MIC Staphylococcus aureus (GC 4542) (Staphylococcus sp.; strain GC 4542): 2 µg/mL (≈ 1.41 µM) | MIC Staphylococcus aureus-SMITH (GC 4543) (Staphylococcus sp.; strain GC 4543): 1 µg/mL (≈ 0.705 µM) | MIC Staphylococcus aureus (GC 4544) (Staphylococcus sp.; strain GC 4544): 2 µg/mL (≈ 1.41 µM) | MIC Staphylococcus aureus (GC 4545) (Staphylococcus sp.; strain GC 4545): 2 µg/mL (≈ 1.41 µM) | MIC Staphylococcus haemolyticus (GC 4546) (Staphylococcus sp.; strain GC 4546): 2 µg/mL (≈ 1.41 µM) | MIC Coagulase Negative Staphylococcus (GC 4547) (Staphylococcus sp.; strain GC 4547): 4 µg/mL (≈ 2.82 µM) | MIC Coagulase Negative Staphylococcus (GC 4548) (Staphylococcus sp.; strain GC 4548): 1 µg/mL (≈ 0.705 µM) | MIC Coagulase Negative Staphylococcus (GC 4549) (Staphylococcus sp.; strain GC 4549): 1 µg/mL (≈ 0.705 µM) | MIC Coagulase Negative Staphylococcus (GC 4551) (Staphylococcus sp.; strain GC 4551): 2 µg/mL (≈ 1.41 µM) | MIC Coagulase Negative Staphylococcus (GC 6257) (Staphylococcus sp.; strain GC 6257): 2 µg/mL (≈ 1.41 µM) | MIC Staphylococcus aureus-SMITH (GC 4543) (Staphylococcus sp.; strain SMITH GC 4543): 1 µg/mL (≈ 0.705 µM) | MIC Enterococcus avium (GC 4558) (Enterococcus sp.; Enterococcus avium (GC 4558)): 4 µg/mL (≈ 2.82 µM) | MIC Enterococcus faecalis (ATCC 29212) (Enterococcus sp.; Enterococcus faecalis (ATCC 29212)): 4 µg/mL (≈ 2.82 µM) | MIC Enterococcus faecalis (GC 2242) (Enterococcus sp.; Enterococcus faecalis (GC 2242)): 4 µg/mL (≈ 2.82 µM) | MIC Enterococcus faecalis (GC 2691) (Enterococcus sp.; Enterococcus faecalis (GC 2691)): 8 µg/mL (≈ 5.64 µM) | MIC Enterococcus faecalis (GC 3059) (Enterococcus sp.; Enterococcus faecalis (GC 3059)): 4 µg/mL (≈ 2.82 µM) | MIC Enterococcus faecalis (GC 4552) (Enterococcus sp.; Enterococcus faecalis (GC 4552)): 4 µg/mL (≈ 2.82 µM) | MIC Enterococcus faecalis (GC 4553) (Enterococcus sp.; Enterococcus faecalis (GC 4553)): 8 µg/mL (≈ 5.64 µM) | MIC Enterococcus faecalis (GC 4554) (Enterococcus sp.; Enterococcus faecalis (GC 4554)): 8 µg/mL (≈ 5.64 µM) | MIC Enterococcus faecalis (GC 6189) (Enterococcus sp.; Enterococcus faecalis (GC 6189)): 4 µg/mL (≈ 2.82 µM) | MIC Enterococcus faecium (GC 2243) (Enterococcus sp.; Enterococcus faecium (GC 2243)): 4 µg/mL (≈ 2.82 µM) | MIC Enterococcus faecium (GC 4556) (Enterococcus sp.; Enterococcus faecium (GC 4556)): 8 µg/mL (≈ 5.64 µM) | MIC Enterococcus faecium (GC 4557) (Enterococcus sp.; Enterococcus faecium (GC 4557)): 2 µg/mL (≈ 1.41 µM) | MIC Enterococcus faecalis (ATCC 29212) (Enterococcus sp.; strain ATCC 29212): 4 µg/mL (≈ 2.82 µM) | MIC Enterococcus faecalis (GC 2242) (Enterococcus sp.; strain GC 2242): 4 µg/mL (≈ 2.82 µM) | MIC Enterococcus faecium (GC 2243) (Enterococcus sp.; strain GC 2243): 4 µg/mL (≈ 2.82 µM) | MIC Enterococcus faecalis (GC 2691) (Enterococcus sp.; strain GC 2691): 8 µg/mL (≈ 5.64 µM) | MIC Enterococcus faecalis (GC 3059) (Enterococcus sp.; strain GC 3059): 4 µg/mL (≈ 2.82 µM) | MIC Enterococcus faecalis (GC 4552) (Enterococcus sp.; strain GC 4552): 4 µg/mL (≈ 2.82 µM) | MIC Enterococcus faecalis (GC 4553) (Enterococcus sp.; strain GC 4553): 8 µg/mL (≈ 5.64 µM) | MIC Enterococcus faecalis (GC 4554) (Enterococcus sp.; strain GC 4554): 8 µg/mL (≈ 5.64 µM) | MIC Enterococcus faecium (GC 4556) (Enterococcus sp.; strain GC 4556): 8 µg/mL (≈ 5.64 µM) | MIC Enterococcus faecium (GC 4557) (Enterococcus sp.; strain GC 4557): 2 µg/mL (≈ 1.41 µM) | MIC Enterococcus avium (GC 4558) (Enterococcus sp.; strain GC 4558): 4 µg/mL (≈ 2.82 µM) | MIC Enterococcus faecalis (GC 6189) (Enterococcus sp.; strain GC 6189): 4 µg/mL (≈ 2.82 µM)
